Here are results for 16 compounds from patent publication US7560552B2, “Thiopyrimidine and isothiazolopyrimidine kinase inhibitors” (Abbott Laboratories, priority 2002, dated 2009).

Broadly, the melting point is the temperature of the solid-liquid transition.

SMILES strings stand for the structures. A value given as a limit tells only on which side of the number the result lay.

As to `CC(C)c1sc2ncnc(N)c2c1-c1ccc(NC(=O)c2ccccc2)cc1` [Example 8, N-[4-(4-amino-6-isopropylthieno[2,3-d]pyrimidin-5-yl)phenyl]benzamide], the melting point is greater than 250 °C.

As for `Cc1ccc(NC(=O)Nc2ccc(-c3c(Cc4ccccc4)sc4ncnc(N)c34)cc2)cc1` [Example 9, N-[4-(4-amino-6-benzylthieno[2,3-d]pyrimidin-5-yl)phenyl]-N′-(4-methylphenyl)urea], the melting point is 169 to 173 °C.

In turn, `Cc1ccccc1NC(=O)Nc1ccc(-c2c(Cc3ccccc3)sc3ncnc(N)c23)cc1` [Example 11, N-[4-(4-amino-6-benzylthieno[2,3-d]pyrimidin-5-yl)phenyl]-N′-(2-methylphenyl)urea] had a melting point of 245 to 248 °C.

Turning to `Cc1ccccc1NC(=O)Nc1ccc(-c2c(C(C)C)sc3ncnc(N)c23)cc1` [Example 12, N-[4-(4-amino-6-isopropylthieno[2,3-d]pyrimidin-5-yl)phenyl]-N′-(2-methylphenyl)urea], the melting point was 233 to 234 °C.

As for `Nc1ncnc2sc(Cc3ccccc3)c(-c3ccc(NS(=O)(=O)c4ccccc4)cc3)c12` [Example 13, N-[4-(4-amino-6-benzylthieno[2,3-d]pyrimidin-5-yl)phenyl]benzenesulfonamide], the melting point was in the range of 100 to 105 °C.

In turn, `Cc1ccccc1NC(=O)Nc1ccc(-c2c(CCO)sc3ncnc(N)c23)cc1` [Example 107, N-{4-[4-amino-6-(2-hydroxyethyl)thieno[2,3-d]pyrimidin-5-yl]phenyl}-N′-(2-methylphenyl)urea] displayed a melting point of 159 to 162 °C.

Regarding `COCCc1sc2ncnc(N)c2c1-c1ccc(NC(=O)Nc2ccc(C)cc2)cc1` [Example 110, N-{4-[4-amino-6-(2-methoxyethyl)thieno[2,3-d]pyrimidin-5-yl]phenyl}-N′-(4-methylphenyl)urea], the melting point was 128 to 132 °C.

`COCCc1sc2ncnc(N)c2c1-c1ccc(NS(=O)(=O)c2ccccc2)cc1` [Example 111, N-{4-[4-amino-6-(2-methoxyethyl)thieno[2,3-d]pyrimidin-5-yl]phenyl}benzenesulfonamide] came in with a melting point of 206 to 208 °C.

Take `COCCc1sc2ncnc(N)c2c1-c1ccc(NC(=O)Cc2cccc(C)c2)cc1` [Example 112, N-{4-[4-amino-6-(2-methoxyethyl)thieno[2,3-d]pyrimidin-5-yl]phenyl}-2-(3-methylphenyl)acetamide]: the melting point was in the range of 200 to 202 °C.

The compound `COCCc1sc2ncnc(N)c2c1-c1ccc(NC(=O)c2ccccc2)cc1` [Example 113, N-{4-[4-amino-6-(2-methoxyethyl)thieno[2,3-d]pyrimidin-5-yl]phenyl}benzamide] had a melting point of 200 to 202 °C.

In the case of `Nc1ncnc2sc(Cc3cccnc3)c(-c3ccc(NC(=O)Nc4cccc(Cl)c4)cc3)c12` [Example 117, N-{4-[4-amino-6-(pyridin-3-ylmethyl)thieno[2,3-d]pyrimidin-5-yl]phenyl}-N′-(3-chlorophenyl)urea], the melting point lay in the range of 169 to 172 °C.

As to `COCCc1sc2ncnc(N)c2c1-c1ccc(NC(=O)Nc2ccccc2C)cc1` [Example 137, N-{4-[4-amino-6-(2-methoxyethyl)thieno[2,3-d]pyrimidin-5-yl]phenyl}-N′-(2-methylphenyl)urea], the melting point was 217 to 219 °C.

Compound `Nc1ncnc2sc(CCO)c(-c3ccc(NC(=O)Nc4cccc(C(F)(F)F)c4)cc3)c12` [Example 139, N-{4-[4-amino-6-(2-hydroxyethyl)thieno[2,3-d]pyrimidin-5-yl]phenyl}-N′-[3-(trifluoromethyl)phenyl]urea] came in with a melting point of 155 to 158 °C.

`COCCc1sc2ncnc(N)c2c1-c1ccc(NC(=O)Nc2cc(C(F)(F)F)ccc2F)cc1` [Example 140, N-{4-[4-amino-6-(2-methoxyethyl)thieno[2,3-d]pyrimidin-5-yl]phenyl}-N′-[2-fluoro-5-(trifluoromethyl)phenyl]urea] returned a melting point of 209 to 211 °C.

Regarding `Nc1ncnc2sc(Cc3ccncc3)c(-c3ccc(NC(=O)Nc4cccc(C(F)(F)F)c4)cc3)c12` [Example 142, N-{4-[4-amino-6-(pyridin-4-ylmethyl)thieno[2,3-d]pyrimidin-5-yl]phenyl}-N′-[3-(trifluoromethyl)phenyl]urea], the melting point was 162 to 166 °C.

Compound `Cc1cccc(CC(=O)Nc2ccc(-c3c(CCO)sc4ncnc(N)c34)cc2)c1` [Example 350, N-{4-[4-amino-6-(2-hydroxyethyl)thieno[2,3-d]pyrimidin-5-yl]phenyl}-2-(3-methylphenyl)acetamide] had a melting point of 142 to 144 °C.
